Assay results: publication PMC8303187, “Anti-Inflammatory Effects of Compounds from Cudrania tricuspidata in HaCaT Human Keratinocytes” (International Journal of Molecular Sciences, 2021)
Where two headings read alike, the source gives them in different places.

How the values were obtained:
[1] = system: IL-6 production in TNF-α + IFN-γ-treated HaCaT cells; assay: IL-6 production in TNF-α + IFN-γ-treated HaCaT cells (ELISA); type: cell-based, human; conditions: for IL-6 production: HaCaT cells pre-treated 3 h, then TNF-α + IFN-γ 24 h, result in words; for IC50: HaCaT cells pre-incubated with compound 3 h, then TNF-α + IFN-γ (20 ng/mL) 24 h, ELISA
Description: The skin consists of two basic layers: the epidermis and dermis. The epidermis is mainly composed of keratinocytes. Pro-inflammatory cytokines are known to play an important role in the immune response in keratinocytes. Previous studies have reported the roles of TNF-α and IFN-γ in inducing NF-κB activation, which upregulates the production of IL-6 and IL-8 [25]. […] Accordingly, the effect of the 16 compounds from C. tricuspidata on IL-6 production in TNF-α + IFN-γ-treated HaCaT cells were determined. Briefly, HaCaT cells were pre-incubated with different concentrations of the 16 compounds for 3 h, and then stimulated with TNF-α + IFN-γ for 24 h.
(§1) The cytokines and chemokines in IL-6, IL-8, CCL17 (TARC), and CCL5 (RANTES) HaCaT cells were detected using an enzyme-linked immunosorbent assay. The levels of these cytokines and chemokines were measured using commercial ELISA kits (BioLegend, San Diego, CA, USA), according to the manufacturer’s instructions.
Figure S2. Effects of the 16 compounds from C. tricuspidata on IL-6 production in TNF-α+IFN-γ-treated HaCaT cells (A, B, and C). Cells were pre-treated with the indicated concentrations of the 16 compounds from C. tricuspidata for 3 h and then stimulated with TNF-α+IFN-γ (20 ng/mL) for 24 h. IL-6 levels were determined as described in the Materials and Methods section. The results are presented as the mean ± standard deviation of three experiments. *p < 0.05, **p < 0.01, and ***p < 0.001 compared with TNF-

HaCaT cells [2] = assay: Cell Counting Kit (CCK)-8 cell viability / cytotoxicity assay; conditions: CCK-8 assay, 24 h, concentration values that did not result in cytotoxicity
Method: (§6) The cytotoxicity of the 16 compounds was evaluated using a Cell Counting Kit (CCK)-8 assay on HaCaT cells.
(§7) To determine the viability of HaCaT cells, these were maintained at 2 × 10^4 cells/well, treated with the test compounds in the presence or absence of glutamate (5 mM), and cultured for 24 h. Subsequently, a CCK8 assay (Dojindo Laboratories, Kumamoto, Japan) was performed and the cells were incubated for 1 h. The absorbance was then measured at 450 nm.

[3] = system: IL-8 production in TNF-α + IFN-γ-treated HaCaT cells; assay: IL-8 production in TNF-α + IFN-γ-treated HaCaT cells (ELISA); type: cell-based, human; conditions: for IL-8 production: HaCaT cells pre-treated 3 h, then TNF-α + IFN-γ 24 h, result in words; for IC50: HaCaT cells pre-incubated with compound 3 h, then TNF-α + IFN-γ (20 ng/mL) 24 h, ELISA
Method: Next, the effect of the 16 compounds from C. tricuspidata on IL-8 production in HaCaT cells were determined. Briefly, HaCaT cells were pre-incubated with different concentrations of the 16 compounds for 3 h. Thereafter, the cells were subjected to TNF-α + IFN-γ stimulation for 24 h. […] Compound 2, with its flavanone skeletons, has been studied for its cyclooxygenase and tyrosinase inhibitory effects. In a previous study, compound 2 altered the anti-neuroinflammatory response in microglia. Compound 6, a prenylated flavanone, has been reported to have apoptotic effects on A375.S2 melanoma cells and to lead to the induction of apoptotic cell death in KM12, Caco-2, HT29, HCC2998, HCT116, and SW48 cell lines. […] This is the first report on the biological action of compounds 2, 6, 12, 13, 4, and 14 on the inhibitory effects of skin inflammatory factors in skin HaCaT cells. Therefore, further mechanism studies of these six compounds in HaCaT cells were conducted.
as §1
Figure S3. Effects of the 16 compounds from C. tricuspidata on IL-8 (A, B, and C) production in TNF-α+IFN-γ-treated HaCaT cells. The cells were pre-treated with the indicated concentrations of the C. tricuspidata compounds for 3 h, and then stimulated with TNF-α+IFN-γ (20 ng/mL) for 24 h. […] levels were determined as described in the Materials and Methods section. Data are expressed as the mean ± standard deviation of three experiments. *p < 0.05, **p < 0.01, and ***p < 0.001 compared with TNF- […]
(1 picture or pasted object on this page, not shown here)

[4] = system: NF-κB p65 translocation to the nucleus in HaCaT cells; assay: NF-κB p65 translocation to the nucleus in TNF-α + IFN-γ-treated HaCaT cells (Western blotting); type: cell-based, human; conditions: HaCaT cells pretreated 3 h, then TNF-α + IFN-γ (20 ng/mL) 10 min; Western blot
Description: (§2) The activation of NF-κB by TNF-α and/or IFN-γ results from high levels of IκB phosphorylation and the degradation of IκB in keratinocytes. NF-κB–mediated inflammation is a significant component of innate immunity and seems to be a final common pathway for the aggravation of the inflammatory response to stimuli in immune diseases of the skin [56]. To determine the potential mechanisms of the inhibition of TNF-α + IFN-γ-induced pro-inflammatory enzyme and the mediator levels by the six compounds from C. tricuspidata, their effects on the phosphorylation and degradation of cytoplasmic IκBα and on p65 translocation to the nucleus were investigated. […] In addition, compounds 13, 4, and 14 inhibited the phosphorylation of IκBα (Figure 5C,D). When HaCaT cells were exposed to TNF-α + IFN-γ, NF-κB p65 translocated from the cytoplasm to the nucleus.
(§3) Figure 5 Effects of the six compounds from C. tricuspidata on the degradation of IκB-α (A,B), the phosphorylation of IκBα (C,D), and the translocation of NF-κB p65 to the nucleus (E,F) in HaCaT cells. Cells were pretreated with the six compounds from C. tricuspidata at the indicated concentrations for 3 h and stimulated with TNF-α + IFN-γ (20 ng/mL) for 10 min. IκBα, p-IκBα, and NF-κB p65 were analyzed using Western blotting, as described in the Materials and Methods section. Representative blots from four independent experiments are presented. The immunoblots were quantified using ImageJ software. The band intensity was normalized to that of actin or anti-proliferating cell nuclear antigen (PCNA). * p < 0.05, ** p < 0.01, *** p < 0.001 compared with TNF-α + IFN-γ only.
(§4) Cells were harvested and pelleted via centrifugation at 200× g for 3 min, washed with PBS, and lysed in 20 mM Tris-HCl buffer (pH 7.4) containing a protease inhibitor mixture (0.1 mM phenylmethanesulfonyl fluoride, 5 mg/mL aprotinin, 5 mg/mL pepstatin A, and 1 mg/mL chymostatin). The protein concentration was determined using a protein assay dye reagent concentrate (#5000006; Bio-Rad Laboratories, Hercules, CA, USA). A total of 30 micrograms of protein from each sample was resolved using 7.5% and 12% sodium dodecyl sulfate-polyacrylamide gel electrophoresis. Thereafter, the proteins were electrophoretically transferred onto Hybond enhanced chemiluminescence (ECL) nitrocellulose membranes (Bio-Rad Laboratories). The membranes were blocked with 5% skimmed milk, and sequentially incubated with the relevant primary antibody and horseradish peroxidase-conjugated secondary antibody, prior to ECL detection (Pierce Biotechnology, Rockford, IL, USA).
(§5) HaCaT cells were homogenized in PER-Mammalian Protein Extraction Buffer (1:20, w:v) (Pierce Biotechnology, Rockford, IL, USA) containing freshly added protease inhibitor cocktail I (EMD Biosciences, San Diego, CA, USA) and 1 mM phenylmethanesulfonyl fluoride. The cytosolic fractions were prepared using centrifugation at 16,000× g for 5 min at 4 °C, while the nuclear and cytoplasmic cell extracts were prepared using NE-PER nuclear and cytoplasmic extraction reagents, respectively (Pierce Biotechnology, Rockford, IL, USA).

[5] = system: IκBα degradation in HaCaT cells; assay: Degradation of cytoplasmic IκBα in TNF-α + IFN-γ-treated HaCaT cells (Western blotting); type: cell-based, human; conditions: HaCaT cells pretreated 3 h, then TNF-α + IFN-γ (20 ng/mL) 10 min; Western blot
Description: as §2, §3, §4, §5

HaCaT cells [6] = system: HaCaT cells
Method: as §6, §7

| Molecule | IL-6 production [1] | IC50 ([1]; Homo sapiens) | Cytotoxicity (HaCaT cells [2]) | IL-8 production [3] | IC50 ([3]; Homo sapiens) | NF-κB p65 translocation to the nucleus [4] | degradation of IκBα in the cytoplasm [5] | Cytotoxicity (HaCaT cells [6]) | IC50 [1] | IC50 [3] |
| --- | --- | --- | --- | --- | --- | --- | --- | --- | --- | --- |
| O=C1c2c(O)cc(O)cc2O[C@H](c2ccc(O)cc2)[C@H]1O [Compound 1, dihydrokaempferol] | significantly decreased | > 80 µM | >80 µM | decreased | > 80 µM | – | – | – | – | – |
| O=C1CC(c2ccc(O)cc2O)Oc2cc(O)cc(O)c21 (stereo not drawn) [Compound 2, steppogenin] | significantly decreased | > 80 µM | >80 µM | decreased | 62.2 ± 16.5 µM | significantly inhibited | – | – | – | – |
| CC(C)=CCc1cc([C@H]2Oc3cc(O)c(CC=C(C)C)c(O)c3C(=O)C2O)c(O)cc1O (stereo partly drawn) [Compound 3, cudraflavanone D] | significantly decreased | > 10 µM | >10 µM | decreased | 4.2 ± 1.03 µM | – | – | – | – | – |
| CC(C)=CCc1c(O)cc2c(c1O)C(=O)C[C@@H](c1cc3c(cc1O)OC(C)(C)C=C3)O2 [Compound 5, cudraflavanone A] | – | > 40 µM | >40 µM | decreased | > 40 µM | – | – | – | – | – |
| CC(C)=CCc1c(-c2ccc(O)cc2O)oc2c(CC=C(C)C)c(O)cc(O)c2c1=O [Compound 7, kuwanon C] | significantly decreased | 25.8 ± 5.16 µM | >40 µM | decreased | > 40 µM | – | – | – | – | – |
| C=CC(C)(C)c1c(O)cc2oc3c(CC=C(C)C)c(O)c(O)cc3c(=O)c2c1O [Compound 10, cudraxanthone L] | significantly decreased | > 2 µM | >2 µM | decreased | > 2 µM | – | – | – | – | – |
| C=CC(C)(C)c1c(O)cc(O)c2c(=O)c3c(CC=C(C)C)c(O)c(O)cc3oc12 [Compound 11, cudratricusxanthone A] | – | > 5 µM | >5 µM | – | > 5 µM | – | – | – | – | – |
| C=CC(C)(C)c1c(O)c(CC=C(C)C)c2oc3cc(O)c(O)cc3c(=O)c2c1O [Compound 12, macluraxanthone B] | significantly decreased | > 5 µM | >5 µM | decreased | 7.88 ± 3.09 µM | significantly inhibited | inhibit | – | – | – |
| C=CC(C)(C)c1c(OC)c(CC=C(C)C)c2oc3cc(O)c(O)cc3c(=O)c2c1O [Compound 15, cudracuspixanthone A] | significantly decreased | > 2 µM | >2 µM | decreased | 1.54 ± 0.53 µM | – | – | – | – | – |
| C=CC(C)(C)c1c2c(c3oc4cc(O)c(O)cc4c(=O)c3c1O)C=CC(C)(C)O2 [Compound 16, cudratricusxanthone N] | – | > 2 µM | >2 µM | decreased | > 2 µM | – | – | – | – | – |
| COc1cc(/C=C/C(=O)CC(=O)/C=C/c2ccc(O)c(OC)c2)ccc1O [curcumin, reference compound] | – | 12 ± 3.13 µM | – | – | 10.3 ± 2.2 µM | – | – | – | – | – |
| cudraxanthone D [Compound 9] | – | – | – | decreased | – | – | – | >5 µM | – | – |
| cudraxanthone M [Compound 8] | – | – | >10 µM | decreased | – | – | – | – | > 10 µM | > 10 µM |
